# Results published in article PMC4744035, “In Vivo, In Vitro, and In Silico Characterization of Peptoids as Antimicrobial Agents” (PLoS ONE, 2016).
# Numbered stars: 1 amine (or outer) side, 2 acyl side, 3 side chain; on linkers, the order of the positions; unused ones are H or OH. Square brackets hold non-standard residues; d marks the D form. Peptide text beside a SMILES is read from it. X1 = CC(C)[C@H](C)N(CC(=O)[*:2])[*:1]; Nspe = C[C@H](NCC(=O)O)c1ccccc1; Nlys = NCCCCNCC(=O)O
# Tests used:
# [1] = system: E. coli ATCC 35218; format: cell-based
# Experimental: (§1) MICs against B. subtilis and E. coli screening bacterial strains were determined using serial dilution in 96-well microtiter plates in accordance with CLSI M7-A6 protocols. Briefly, peptoid solution in cation-adjusted Mueller-Hinton broth was prepared by 2:1 serial dilution with a total volume of 50 µL per well. In experimental wells, 50 µL of bacterial inoculums (1 x 10^6 CFU/mL) were added to the peptoid solutions. Positive controls consisted of 50 µL inoculums added to 50 µL cation-adjusted Mueller-Hinton broth containing no peptoid, while negative controls contained only cation-adjusted Mueller-Hinton broth. […] Experiments were reproducible among three independent replicates, each consisting of two parallel trials.
# [2] = system: B. subtilis ATCC 6633; format: cell-based
# Experimental: as §1
# [3] = system: NIH 3T3 cells; test: Metabolic activity, MTS assay; format: cell-based, mouse
# Experimental: NIH 3T3 mouse fibroblast cells were cultured in complete Dulbecco’s Modified Eagle’s Media. A peptoid solution plate (100 µL per well) was prepared by serial dilution of aqueous peptoid stock solutions in Hank’s balanced salt solution. A day-old cell monolayer was washed thoroughly with Hank’s balanced salt solution and replenished with 100 µL Hank’s balanced salt solution per well. Peptoid solutions were transferred onto the day-old cell monolayers, which contained approximately 5000 cells per well. […] The average of six replicate trials is reported.
# [4] = system: erythrocytes; test: Hemolytic activity (HD10/HD50); format: cell-based
# Source text: Table 1 Characteristics of antimicrobial peptoids, screened for activity against B. subtilis and E. coli bacterial strains. | column: HD10 / HD50
# [5] = system: P. aeruginosa H103 (wild type); test: microbe, parasite or virus in culture; conditions: H103 (wild type)
# In short: (§2)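 Modified broth microdilution in Mueller Hinton medium, polypropylene plates; agents serially diluted in 0.01% acetic acid with 0.2% BSA. Inoculum 2–7 x 10^5 CFU/mL from overnight culture, incubated overnight at 37°C. MIC taken as lowest concentration with no visible growth.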
# [6] = system: P. aeruginosa 213 (MDR); test: microbe, parasite or virus in culture; conditions: 213 (MDR)
# In short: as §2
# [7] = system: E. coli 64771 (ESBL); test: microbe, parasite or virus in culture; conditions: 64771 (ESBL)
# In short: as §2
# [8] = system: P. maltophilia ATCC13637; test: microbe, parasite or virus in culture; conditions: ATCC13637
# In short: as §2
# [9] = system: E. faecium T62764 (VRE); test: microbe, parasite or virus in culture; conditions: T62764 (VRE)
# In short: as §2
# [10] = system: P. aeruginosa H1027 (MDR); test: microbe, parasite or virus in culture; conditions: H1027 (MDR)
# In short: as §2
# [11] = system: S. aureus C623 (MRSA); test: microbe, parasite or virus in culture; conditions: C623
# In short: as §2
# [12] = system: E. coli 63103 (ESBL); test: microbe, parasite or virus in culture; conditions: 63103 (ESBL)
# In short: as §2
# [13] = system: P. aeruginosa H1030 (MDR); test: microbe, parasite or virus in culture; conditions: P. aeruginosa H1030 (MDR)
# In short: as §2
# [14] = system: S. aureus ATCC25923; test: microbe, parasite or virus in culture; conditions: ATCC25923
# In short: as §2
# [15] = system: P. aeruginosa 198 (MDR); test: microbe, parasite or virus in culture; conditions: 198 (MDR)
# In short: as §2
# [16] = system: K. pneumonia 61962 (ESBL); test: microbe, parasite or virus in culture
# In short: as §2
# [17] = system: E. faecalis F43559 (VRE); test: microbe, parasite or virus in culture; conditions: F43559 (VRE)
# In short: as §2
# [18] = system: E. faecalis ATCC29212; test: microbe, parasite or virus in culture; conditions: ATCC29212
# In short: as §2
# [19] = system: E. faecalis W61950 (VRE); test: microbe, parasite or virus in culture; conditions: W61950 (VRE)
# In short: as §2
# [20] = system: E. cloacae 218R Class C β-lactamase; test: microbe, parasite or virus in culture; conditions: 218R Class C β-lactamase
# In short: as §2
# [21] = system: P. aeruginosa 9 (MDR); test: microbe, parasite or virus in culture; conditions: 9 (MDR)
# In short: as §2
# [22] = system: P. aeruginosa LES400 (MDR); test: microbe, parasite or virus in culture; conditions: LES400 (MDR)
# In short: as §2
# [23] = system: K. pneumonia 63575 (ESBL); test: microbe, parasite or virus in culture
# In short: as §2
# [24] = system: E. faecium mic80 (VRE); test: microbe, parasite or virus in culture; conditions: mic80 (VRE)
# In short: as §2
compound,measurement,setting,value
H-(NLys-Nspe-Nspe)3-NH2 [Peptoid 1_9mer],MIC E. coli,[1],25 µM
same,MIC B. subtilis,[2],1.6 µM
"C[C@@H](c1ccccc1)N(CC(N)=O)C(=O)CN(Cc1ccccc1)C(=O)CN(CCCCN)C(=O)CN(Cc1ccccc1)C(=O)CN(Cc1ccccc1)C(=O)CN(CCCCN)C(=O)CN(Cc1ccccc1)C(=O)CN(Cc1ccccc1)C(=O)CN(CCCCN)C(=O)CN(Cc1ccccc1)C(=O)CN(Cc1ccccc1)C(=O)CNCCCCN [Peptoid 1ach-Nspe12, H-(NLys-Npm-Npm)3-(NLys-Npm-Nspe)-NH2]","ID50 (inhibitory dose, metabolic activity)",[3],15 µM
same,HD10 (hemolytic activity),[4],164
same,HD50 (hemolytic activity),[4],> 200
same,MIC E. coli,[1],6.3 µM
same,MIC,[5],4 µg/mL
same,MIC,[6],4 µg/mL
same,MIC,[7],4 µg/mL
same,MIC,[8],1 µg/mL
same,MIC,[9],1 µg/mL
same,MIC,[10],1 µg/mL
same,MIC,[11],8 µg/mL
same,MIC,[12],16 µg/mL
same,MIC,[13],32 µg/mL
same,MIC,[14],4 µg/mL
same,MIC,[15],8 µg/mL
same,MIC,[16],128 µg/mL
same,MIC,[17],16 µg/mL
same,MIC,[18],8 µg/mL
same,MIC,[19],16 µg/mL
same,MIC,[20],16 µg/mL
same,MIC,[21],64 µg/mL
same,MIC,[22],4 µg/mL
same,MIC,[23],32 µg/mL
same,MIC,[24],4 µg/mL
"C[C@H](NCC(=O)N(CC(=O)N(CCCCN)CC(=O)N(CC(=O)N(CCCCN)CC(=O)N(CC(=O)N(CCCCN)CC(=O)N(CC(=O)N(CC(=O)N(CC(=O)N(CC(=O)N(CCCCN)CC(N)=O)[C@@H](C)c1ccccc1)[C@@H](C)c1ccccc1)[C@@H](C)c1ccccc1)[C@@H](C)c1ccccc1)[C@@H](C)c1ccccc1)[C@@H](C)c1ccccc1)[C@@H](C)c1ccccc1)c1ccccc1 [Peptoid 1scr, H-(Nspe)2-(NLys-Nspe)3-(Nspe)3-NLys-NH2] (H-[Nspe][Nspe][Nlys][Nspe][Nlys][Nspe][Nlys][Nspe][Nspe][Nspe][Nspe][Nlys]-NH2)","ID50 (inhibitory dose, metabolic activity)",[3],8.5 µM
same,HD10 (hemolytic activity),[4],64
same,HD50 (hemolytic activity),[4],> 200
same,MIC E. coli,[1],6.3 µM
same,MIC,[5],16 µg/mL
same,MIC,[6],16 µg/mL
same,MIC,[7],16 µg/mL
same,MIC,[8],2 µg/mL
same,MIC,[9],2 µg/mL
same,MIC,[10],4 µg/mL
same,MIC,[11],8 µg/mL
same,MIC,[12],64 µg/mL
same,MIC,[13],64 µg/mL
same,MIC,[14],8 µg/mL
same,MIC,[15],32 µg/mL
same,MIC,[16],128 µg/mL
same,MIC,[17],8 µg/mL
same,MIC,[18],8 µg/mL
same,MIC,[19],32 µg/mL
same,MIC,[20],32 µg/mL
same,MIC,[21],256 µg/mL
same,MIC,[22],16 µg/mL
same,MIC,[23],64 µg/mL
same,MIC,[24],8 µg/mL
"CC(C)[C@H](C)N(CC(=O)N(CCCCN)CC(=O)N(CC(=O)N(CC(=O)N(CCCCN)CC(=O)N(CC(=O)N(CC(=O)N(CCCCN)CC(=O)N(CC(=O)N(CC(N)=O)[C@@H](C)c1ccccc1)[C@@H](C)c1ccccc1)[C@@H](C)C(C)C)[C@@H](C)C(C)C)[C@@H](C)c1ccccc1)[C@@H](C)c1ccccc1)C(=O)CN(C(=O)CNCCCCN)[C@@H](C)C(C)C [1-Nsdp2,3,8,9, H-(NLys-Nsdp-Nsdp-NLys-Nspe-Nspe)2-NH2] (H-[Nlys][X1][X1][Nlys][Nspe][Nspe][Nlys][X1][X1][Nlys][Nspe][Nspe]-NH2)","ID50 (inhibitory dose, metabolic activity)",[3],19 µM
same,HD10 (hemolytic activity),[4],77
same,HD50 (hemolytic activity),[4],> 200
same,MIC E. coli,[1],12.5 µM
same,MIC,[5],8 µg/mL
same,MIC,[6],8 µg/mL
same,MIC,[7],8 µg/mL
same,MIC,[8],1 µg/mL
same,MIC,[9],1 µg/mL
same,MIC,[10],2 µg/mL
same,MIC,[11],4 µg/mL
same,MIC,[12],16 µg/mL
same,MIC,[13],8 µg/mL
same,MIC,[14],4 µg/mL
same,MIC,[15],32 µg/mL
same,MIC,[16],32 µg/mL
same,MIC,[17],16 µg/mL
same,MIC,[18],4 µg/mL
same,MIC,[19],16 µg/mL
same,MIC,[20],8 µg/mL
same,MIC,[21],256 µg/mL
same,MIC,[22],8 µg/mL
same,MIC,[23],32 µg/mL
same,MIC,[24],4 µg/mL
"C[C@@H](c1ccccc1)N(CC(N)=O)C(=O)CN(C(=O)CN(CCCCN)C(=O)CN(C(=O)CN(C(=O)CN(CCCCN)C(=O)[C@@H]1CCCN1C(=O)CN(C(=O)CN(CCCCN)C(=O)CN(C(=O)CN(C(=O)CNCCCCN)[C@@H](C)c1ccccc1)[C@@H](C)c1ccccc1)[C@@H](C)c1ccccc1)[C@@H](C)c1ccccc1)[C@@H](C)c1ccccc1)[C@@H](C)c1ccccc1 [Peptoid 1-Pro6, H-NLys-Nspe2-NLys-Nspe-L-Pro-(NLys-Nspe2)2-NH2] (H-[Nlys][Nspe][Nspe][Nlys][Nspe]P[Nlys][Nspe][Nspe][Nlys][Nspe][Nspe]-NH2)","ID50 (inhibitory dose, metabolic activity)",[3],18 µM
same,HD10 (hemolytic activity),[4],83
same,HD50 (hemolytic activity),[4],> 200
same,MIC E. coli,[1],12.5 µM
same,MIC,[5],8 µg/mL
same,MIC,[6],16 µg/mL
same,MIC,[7],8 µg/mL
same,MIC,[8],2 µg/mL
same,MIC,[9],1 µg/mL
same,MIC,[10],4 µg/mL
same,MIC,[11],8 µg/mL
same,MIC,[12],16 µg/mL
same,MIC,[13],16 µg/mL
same,MIC,[14],4 µg/mL
same,MIC,[15],16 µg/mL
same,MIC,[16],64 µg/mL
same,MIC,[17],8 µg/mL
same,MIC,[18],8 µg/mL
same,MIC,[19],32 µg/mL
same,MIC,[20],16 µg/mL
same,MIC,[21],256 µg/mL
same,MIC,[22],8 µg/mL
same,MIC,[23],32 µg/mL
same,MIC,[24],8 µg/mL
